Consider eleven compounds from patent US7354955B2, “(2S)-amino(phenyl)acetic acid and derivatives as α2δ voltage-gated calcium channel ligands” (Abbott Laboratories, priority 2004, dated 2008).

One test deals with gabapentin binding site. Particulars: cited from earlier work.
In test [1] the test system is mechanical allodynia in rats that had undergone spinal nerve ligation. The test is described as follows: Analgesic effect: mechanical allodynia (von Frey) after L5/L6 spinal nerve ligation. Particulars: oral, 60 minutes before von Frey testing; percentage of maximal protective effect relative to vehicle; Sprague Dawley rats.
Where [2] appears, read: anti-convulsant drugs, background statement.

Where two headings read alike, the source gives them in different places.

`Cn1c(=O)c2c(ncn2C)n(C)c1=O` [caffeine]: the “interaction with the gabapentin binding site” value (from here on “interaction”) in the test on gabapentin binding site (ligands for other calcium channel subtypes, background statement) is “do not interact”.

Consider `CCC1(c2ccccc2)C(=O)NC(=O)NC1=O` [phenobarbitone], for which the “competition for gabapentin binding” value in the test with gabapentin binding site is “do not compete”. Turning to `N[C@H](C(=O)O)c1ccccc1` [(2S)-amino(phenyl)acetic acid], in test [1], the EC50 is 50 µmol/kg.

As to `C[C@]12N[C@H](Cc3ccccc31)c1ccccc12` [MK801], the “interaction” value with gabapentin binding site was “do not interact”. `NCC1(CC(=O)O)CCCCC1` [Gabapentin] showed an EC50 in test [1] of 160 µmol/kg. For the compound ryanodine, the “interaction” value in the test with gabapentin binding site was “do not interact”. Turning to `COc1ccc(CCN(C)CCCC(C#N)(c2ccc(OC)c(OC)c2)C(C)C)cc1OC` (centres unmarked) [verapamil], the “interaction” value in the test with gabapentin binding site is given as “do not interact”. With `NC(=O)N1c2ccccc2C=Cc2ccccc21` [carbamazepine], the “competition for gabapentin binding” value in the test on gabapentin binding site (setting [2]) is on record as “do not compete”.

Consider `CN1C(=O)CN=C(c2ccccc2)c2cc(Cl)ccc21` [diazepam], for which the “competition for gabapentin binding” value with gabapentin binding site is “do not compete”. As to `COc1cc(CNC(=O)CCCC/C=C/C(C)C)ccc1O` [capsaisin], the “interaction” value in the test on gabapentin binding site is “do not interact”. Turning to `O=C1NC(=O)C(c2ccccc2)(c2ccccc2)N1` [phenytoin], the “competition for gabapentin binding” value in the test on gabapentin binding site (setting [2]) is “do not compete”.
